Laboratory results taken from patent publication US4992449A, “7-(substituted)cycloalkylamino-1 -(substituted)-6-fluoro-1,4-dihydro-4-oxo-3-quinolinecarboxylic acids” (American Cyanamid Company, priority 1990, dated 1991).
Converted amounts (≈) assume the structure as drawn.

Key:
Test in all cases: In vitro antibacterial MIC, agar plate dilution
Type in all cases: cell-based
Excherichia coli LL 311 = settings: 18 h, Table II, read-out: MIC
Procedure, shortened: (§1)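 Mueller-Hinton agar plates containing serial compound dilutions; inoculum ~10^4 CFU/spot (Steers replicator); incubated 18 h, 35° C; MIC (mcg/ml) = lowest conc. with no visible growth.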

[1] = test system: Enterobacter cloacae K 84-10; settings: K8410, Mueller-Hinton agar, 10^4 CFU, 18 hours, 35° C.
Procedure, shortened: as §1

[2] = test system: Serratia marcescens IO 83-63; settings: IO8363, Mueller-Hinton agar, 10^4 CFU, 18 hours, 35° C.
Procedure, shortened: as §1

[3] = test system: Klebsiella neumoniae IO 83-5; settings: IO835, Mueller-Hinton agar, 10^4 CFU, 18 hours, 35° C.
Procedure, shortened: as §1

[4] = test system: Pseudomonas aeruginosa VGH 84-3; settings: VGH843, Mueller-Hinton agar, 10^4 CFU, 18 hours, 35° C.
Procedure, shortened: as §1

[5] = test system: Klebsiella neumoniae CMC 84-31; settings: CMC8431, Mueller-Hinton agar, 10^4 CFU, 18 hours, 35° C.
Procedure, shortened: as §1

[6] = test system: Streptococcus faecalis UCI 85-19; settings: Enterococcus faecalis, UCI8519, 18 h, Table II, read-out: MIC
Procedure, shortened: as §1

[7] = test system: Enterobacter cloacae VGH 84-39; settings: VGH8439, Mueller-Hinton agar, 10^4 CFU, 18 hours, 35° C.
Procedure, shortened: as §1

[8] = test system: Pseudomonas aeruginosa VGH 84-16; settings: VGH8416, Mueller-Hinton agar, 10^4 CFU, 18 hours, 35° C.
Procedure, shortened: as §1

[9] = test system: Escherichia coli VGH 84-19; settings: VGH8419, Mueller-Hinton agar, 10^4 CFU, 18 hours, 35° C.
Procedure, shortened: as §1

[10] = test system: Staphylococcus aureus CMC 83-131; settings: CMC83131, Mueller-Hinton agar, 10^4 CFU, 18 hours, 35° C.
Procedure, shortened: as §1

[11] = test system: Staphylococcus aureus NEMC 87-59; settings: NEMC8759, 18 h, Table II
Procedure, shortened: as §1

Staphylococcus SSC 82-56 = settings: SSC8256, 18 h, Table II
Procedure, shortened: as §1

Row | MIC (Excherichia coli LL 311) | MIC [1] | MIC [2] | MIC [3] | MIC [4] | MIC [5] | MIC [6] | MIC [7] | MIC [8] | MIC [9] | MIC [10] | MIC [11] | MIC (Staphylococcus SSC 82-56) | Compound
1 | 2 µg/mL (≈ 6 µM) | 1 µg/mL (≈ 3 µM) | 1 µg/mL (≈ 3 µM) | 2 µg/mL (≈ 6 µM) | > 16 µg/mL | 2 µg/mL (≈ 6 µM) | 32 µg/mL (≈ 96 µM) | 1 µg/mL (≈ 3 µM) | > 16 µg/mL | 1 µg/mL (≈ 3 µM) |  |  |  | CCn1cc(C(=O)O)c(=O)c2cc(F)c(N[C@@H]3CCC[C@@H]3N)cc21 (relative stereo) [Example 4, Cis-7-[(2-Aminocyclopentyl)amino]-1-ethyl-6-fluoro-1,4-dihydro-4-oxo-3-quinolinecarboxylic acid]
2 | 1 µg/mL (≈ 2.5 µM) | 2 µg/mL (≈ 5.01 µM) | 4 µg/mL (≈ 10 µM) | 4 µg/mL (≈ 10 µM) | > 16 µg/mL | 4 µg/mL (≈ 10 µM) | 64 µg/mL (≈ 160 µM) | 2 µg/mL (≈ 5.01 µM) | > 16 µg/mL | 2 µg/mL (≈ 5.01 µM) | > 16 µg/mL | 4 µg/mL (≈ 10 µM) | 2 µg/mL (≈ 5.01 µM) | N[C@H]1CCC[C@H]1Nc1cc2c(cc1F)c(=O)c(C(=O)O)cn2-c1ccc(F)cc1 (relative stereo) [Example 3]
